Target: T1, motilin receptors located on the colon of mature rabbits (Oryctolagus cuniculus, UniProt G1T803)
T1 construct: The muscle tissues were homogenized in 10 volumes of buffer; from tissue; host or cells: rabbit colon smooth muscle, crude membrane homogenate
Assay: Competition with radiolabeled motilin (porcine) binding, rabbit colon membranes
Parameters: species or system New Zealand rabbits
Conditions: I125 motilin (porcine), rabbit colon membrane
Experimental: The compounds of the invention were tested for their ability to compete with radiolabeled motilin (porcine) for the motilin receptors located on the colon of mature rabbits. The colon from mature New Zealand rabbits was removed, dissected free from the mucosa and serosa layers, and diced into small pieces. The muscle tissues were homogenized in 10 volumes of buffer (50 mM Tris-Cl, 10 mM MgCl2, 0.1 mg/mL bactracin, and 0.25 mM Peflabloc, pH 7.5) in a Polytron (29,000 rpm, 4×15 seconds). The homogenate was centrifuged at 1000×g for 15 min. and the supernatant discarded. The pellet was washed twice before being suspended in homogenizing buffer. This crude homogenate was then passed first through a 19 gauge needle then a 23 gauge needle to further suspend the material and stored at −80° C. […] The pellet was counted in the gamma counter to determine the percentage of […] motilin and thereby the percent inhibition of the test compound.
% inhibition was determined for some compounds by standard techniques: […]

T1 sequence (G1T803 1-400): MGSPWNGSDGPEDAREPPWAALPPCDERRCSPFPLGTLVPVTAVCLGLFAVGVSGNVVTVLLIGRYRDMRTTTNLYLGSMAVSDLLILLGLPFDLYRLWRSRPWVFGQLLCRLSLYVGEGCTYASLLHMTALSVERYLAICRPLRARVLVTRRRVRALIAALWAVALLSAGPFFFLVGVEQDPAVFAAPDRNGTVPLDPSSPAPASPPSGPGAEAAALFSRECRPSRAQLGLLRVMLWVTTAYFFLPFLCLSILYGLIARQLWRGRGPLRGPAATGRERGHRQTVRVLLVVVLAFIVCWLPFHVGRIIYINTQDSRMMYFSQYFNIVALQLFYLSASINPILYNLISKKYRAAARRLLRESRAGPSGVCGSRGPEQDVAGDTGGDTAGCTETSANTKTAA

O=C(c1ccc(F)c(F)c1)N(CC1=CC(Cc2ccccc2)(NC(=O)C(Cl)(Cl)Cl)C1)c1cccc(OCCN2CCOCC2)c1 (centres unmarked) [example 6, 3-Benzyl-3-trichloroacetamido-1-[N-(3,4-difluorobenzoyl)]-N-[(3-(2-morpholinoethoxy)phenyl)amino]methylcyclobutene]
% inhibition (@ 1,000 nM test compound): 14%

O=C(c1ccc(Br)cc1)N(CC1=CC(Cc2ccccc2)(NC(=O)C(Cl)(Cl)Cl)C1)c1cccc(OCCN2CCOCC2)c1 (centres unmarked) [example 7, 3-Benzyl-3-trichloroacetamido-1-[N-(4-bromobenzoyl)]-N-[(3-(2-morpholinoethoxy)phenyl)amino]methylcyclobutene]
% inhibition (@ 10,000 nM test compound): 47%

Source: patent US6667309B2, “Cyclobutene derivatives useful as antagonists of the motilin receptor” (Ortho-McNeil Pharmaceutical, Inc., priority 2000, dated 2003)
